Patent publication US5068340A, “Isothiazolyl substituted glycerol derivatives containing phosphate groups” (priority 1986, dated 1991)
Counter-ions that a name gives are not always drawn.

Legend:
[1] = test system: PAF-induced platelet aggregation; assay: Inhibition of PAF-induced platelet aggregation in vitro (platelet-rich plasma); type: cell-based; conditions: Oryctolagus cuniculus, 5 min, rabbit plasma, platelet count 6×10^5/μl, C16:0 PAF 1×10^-8-3×10^-8 M final
Description: Inhibition of PAF-induced platelet aggregation in vitro
Blood was drawn from a rabbit and immediately mixed with one nineth of its volume of a 3.8% w/v aqueous solution of sodium citrate. A platelet-rich plasma (PRP) was obtained as a supernatant by centrifugation of the blood at 150×g for 15 minutes at room temperature. The precipitated fraction was centrifuged for a further 15 minutes at 1000×g to obtain a platelet-poor plasma (PPP) as a supernatant. Appropriate proportions of this PRP and PPP were mixed to obtain a plasma having a platelet count of 6×10^5 /μl.
Platelet aggregation was determined by the method of Born et al. [G. V. R. Born et al., J. Physiol., 62, 67-68 (1962)] where an increase in light transmission is measured by the aggregometer.
25 μl of a saline solution containing the compound to be tested at an appropriate concentration was added to 250 μl of the above plasma. One minute thereafter. […] The aggregation resulting from the addition of PAF alone, without the prior addition of the test compound was taken as 100%.
The IC50 values (i.e. concentrations to inhibit aggregation by 50%) were calculated from dose-response curves and are shown in Table 6.

PAF-induced hypotension = assay: Inhibition of PAF-induced hypotension (rat, i.v.); type: in vivo, rats of the Wistar-Imamichi strain; conditions: 50% inhibitory dose, intravenous, cumulative doses, 10 ng/kg i.v. 1-C16:0 PAF, Inactin anesthesia, rats, read-out: Inhibition of Hypotension ID50
Description: Inhibition of PAF-induced hypotension
The test animals employed were rats of the Wistar-Imamichi strain, each weighing between 350 and 450 g.
Under Inactin anesthesia (90 mg/kg administered intraperitoneally) the left femoral artery and vein of each test animal were cannulated to enable the arterial blood pressure to be monitored continuously and for drug administration, respectively. At intervals of about 5 minutes, each animal was given by intravenous injection 10 ng/kg of synthetic 1-C16:0 PAF until a steady hypotensive response was achieved. At this time, the drug to be tested was administered by intravenous injection in doses increasing cumulatively by a factor of 3. Within 1 minute of this injection, a further 10 ng/kg of the 1-C16:0 PAF was administered. The hypotensive response to PAF was inhibited by the test drug in a dose-related manner.
The PAF was administered in the form of a solution in physiological saline containing 0.25% w/v bovine serum albumin. The test drugs were dissolved in physiological saline containing either 0.25% w/v BSA or 20% v/v ethanol.
The 50% inhibitory dose (ID50) was calculated from the dose-response curve constructed for the inhibition of PAF-induced hypotension.
This test was carried out using compounds of the invention, as well as the prior art compound CV-3988, disclosed in U.S. Pat. No. 4,408,052 and represented by the foregoing formula (B).

In the case of `CCCCCCCCCCCCCCCCCNC(=O)OCC(COP(=O)([O-])OCC[n+]1ccsc1)Oc1ccon1` (racemic) [Example 13, (2RS)-3-(N-Heptadecylcarbamoyloxy)-2-(3-isoxazolyloxy)propyl 2-thiazolioethyl phosphate (inner salt)], the IC50 [1] is reported as 3.4 µM and the ED50 (PAF-induced hypotension) is reported as 0.096 mg/kg.
`CCCCCCCCCCCCCCCCCNC(=O)OCC(COP(=O)([O-])OCC[n+]1ccsc1)Oc1cc(C)on1` (racemic) [Example 18, (2RS)-3-(N-Heptadecylcarbamoyloxy)-2-(5-methyl-3-isoxazolyloxy)propyl 2-thiazolioethyl phosphate (inner salt)] gave an IC50 [1] of 4.8 µM and an ED50 (PAF-induced hypotension) of 0.081 mg/kg.
In the case of `CCCCCCCCCCCCCCCc1cc(OCC(COP(=O)([O-])OCCCCCC[n+]2ccsc2)Oc2cc(C)on2)no1` (racemic) [Example 23, (2RS)-3-(5-Pentadecyl-3-isoxazolyloxy)-2-(5-methyl-3-isoxazolyloxy)propyl 6-thiazoliohexyl phosphate (inner salt)], the IC50 [1] is reported as 1.4 µM and the ED50 (PAF-induced hypotension) is reported as 0.067 mg/kg.
Molecule `CCCCCCCCCCCCCCCc1cc(OCC(COCCCCCCC[n+]2ccsc2)Oc2cc(C)on2)no1` (racemic) [Example 24, (2RS)-1-O-(5-Pentadecyl-3-isoxazolyl)-2-O-(5-methyl-3-isoxazolyl)-3-(7-thiazolioheptyl)glycerol methanesulfonate] has an IC50 [1] of 0.31 µM and an ED50 (PAF-induced hypotension) of 0.03 mg/kg.
For `CCCCCCCCCCCCCCCc1cc(OCC(COC(=O)NCCCCC[n+]2ccsc2)Oc2cc(C)on2)no1` (racemic) [Example 25, (2RS)-1-O-(5-Pentadecyl-3-isoxazolyl)-2-O-(5-methyl-3-isoxazolyl)-3-O-{N-(5-thiazoliopentyl)carbamoyl}glycerol bromide], the IC50 [1] was 0.27 µM and the ED50 (PAF-induced hypotension) was 0.055 mg/kg.
`CCCCCCCCCCCCCCCCCNC(=O)OCC(COC(=O)NCCCCC[n+]1ccsc1)Oc1cc(C)on1.[Br-]` (racemic) [Example 33, 3-{5-[(2RS)-3-(N-Heptadecylcarbamoyloxy)-2-(5-methyl-3-isoxazolyloxy)propoxycarbonylamino]pentyl}thiazolium bromide] gave an IC50 [1] of 0.31 µM and an ED50 (PAF-induced hypotension) of 0.086 mg/kg.
For `CCCCCCCCCCCCCCCCCNC(=O)OCC(COC(=O)N(Cc1cccc[n+]1CC)C(C)=O)Oc1ccon1` (racemic) [Example 38, 2-{N-Acetyl-N-[(2RS)-3-(N-Heptadecylcarbamoyloxy)-2-(3-isoxazolyloxy)propoxycarbonyl]aminomethyl}-1-ethylpyridinium chloride], the IC50 [1] was 0.081 µM and the ED50 (PAF-induced hypotension) was 0.004 mg/kg.
In the case of `CCCCCCCCCCCCCCCCc1cc(OC[C@H](COC(=O)N[C@H](CCCCC[n+]2ccsc2)C(=O)OCC)Oc2ccon2)no1.CS(=O)(=O)[O-]` (racemic) [Example 41, 3-{(6RS)-6-Ethoxycarbonyl-6-[(2RS)-3-(5-hexadecyl-3-isoxazolyloxy)-2-(3-isoxazolyloxy)propoxy]carbonylaminohexyl}thiazolium methanesulfonate], the IC50 [1] is reported as 0.35 µM and the ED50 (PAF-induced hypotension) is reported as 0.054 mg/kg.
Work on `CCCCCCCCCCCCCCCCCCNC(=O)OCC(COP(=O)([O-])OCC[n+]1ccsc1)OC` (stereo not drawn) [CV-3988, reference compound] yielded an IC50 [1] of 9.8 µM and an ED50 (PAF-induced hypotension) of 0.415 mg/kg.
